Columns and labels:
WI-38 = assay: Antiproliferative activity against human WI38 cells after 24 hrs by BrdU incorporation assay; type: cell-based; conditions: WI-38, 24 h
A549 [1] = assay: Antiproliferative activity against human A549 cells after 24 hrs by BrdU incorporation assay; type: functional, cell-based; conditions: A549, 24 h
A549 [2] = assay: Induction of cell cycle arrest in human A549 cells assessed as accumulation at S phase at 1 uM after 24 hrs by FITC-labeled anti-BrdU antibody/7AAD staining based FACS calibur flow cytometric analysis (reference value: 20.9 %); type: functional
A549 [3] = assay: Induction of cell cycle arrest in human A549 cells assessed as accumulation at G2/M phase at 1 uM after 24 hrs by FITC-labeled anti-BrdU antibody/7AAD staining based FACS calibur flow cytometric analysis (reference value: 12.61 %); type: functional
A549 [4] = assay: Induction of cell cycle arrest in human A549 cells assessed as accumulation at G1 phase at 1 uM after 24 hrs by FITC-labeled anti-BrdU antibody/7AAD staining based FACS calibur flow cytometric analysis (reference value: 65.9 %); type: functional
A549 [5] = assay: Induction of cell cycle arrest in human A549 cells assessed as accumulation at sub G1 phase at 1 uM after 24 hrs by FITC-labeled anti-BrdU antibody/7AAD staining based FACS calibur flow cytometric analysis (reference value: 0.82 %); type: functional
A549 [6] = assay: Induction of cell cycle arrest in human A549 cells assessed as accumulation at sub G1 phase at 100 uM after 24 hrs by FITC-labeled anti-BrdU antibody/7AAD staining based FACS calibur flow cytometric analysis (reference value: 0.82 %); type: functional
A549 [7] = assay: Induction of cell cycle arrest in human A549 cells assessed as accumulation at G1 phase at 100 uM after 24 hrs by FITC-labeled anti-BrdU antibody/7AAD staining based FACS calibur flow cytometric analysis (reference value: 65.9 %); type: functional
A549 [8] = assay: Induction of cell cycle arrest in human A549 cells assessed as accumulation at S phase at 100 uM after 24 hrs by FITC-labeled anti-BrdU antibody/7AAD staining based FACS calibur flow cytometric analysis (reference value: 20.9 %); type: functional
A549 [9] = assay: Induction of cell cycle arrest in human A549 cells assessed as accumulation at G2/M phase at 100 uM after 24 hrs by FITC-labeled anti-BrdU antibody/7AAD staining based FACS calibur flow cytometric analysis (reference value: 12.61 %); type: functional

Row | SMILES | IC50 (A549 [1]) [µM] | IC50 (WI-38) [µM] | also measured
1 | Cc1ccc(NC(=O)CN2CCN(c3cc4c(cc3F)c(=O)c(C(=O)O)cn4C3CC3)CC2)cc1 | 23.6 | > 100 | –
2 | COc1ccccc1NC(=O)CN1CCN(c2cc3c(cc2F)c(=O)c(C(=O)O)cn3C2CC2)CC1 | > 100 | > 100 | –
3 | COc1cccc2c1C(=O)c1c(O)c3c(c(O)c1C2=O)C[C@@](O)(C(=O)CO)C[C@@H]3O[C@H]1C[C@H](N)[C@H](O)[C@H](C)O1 [DOXORUBICIN] | – | 12.3 | Activity (A549 [2]): 15.4%; Activity (A549 [3]): 22.5%; Activity (A549 [4]): 56.5%; Activity (A549 [5]): 6.75%
4 | O=C(CN1CCN(c2cc3c(cc2F)c(=O)c(C(=O)O)cn3C2CC2)CC1)Nc1ccccc1 | > 100 | > 100 | –

Second part, led by results:

Row | IC50 (A549 [1]) [µM] | SMILES | IC50 (WI-38) [µM] | also measured
5 | 20.7 | O=C(CN1CCN(c2cc3c(cc2F)c(=O)c(C(=O)O)cn3C2CC2)CC1)NC1CCCCC1 | > 100 | –
6 | > 100 | O=C(O)c1cn(C2CC2)c2cc(N3CCNCC3)c(F)cc2c1=O [CIPROFLOXACIN] | > 100 | Activity (A549 [6]): 9.5%; Activity (A549 [7]): 61%; Activity (A549 [8]): 3.8%; Activity (A549 [9]): 16.8%

Reference: ChEMBL document CHEMBL4428075, “New antiproliferative 7-(4-(N-substituted carbamoylmethyl)piperazin-1-yl) derivatives of ciprofloxacin induce cell cycle arrest at G2/M phase” (Bioorg Med Chem, 2016)
